| SMILES | logP |
| --- | --- |
| Oc1ccc(-c2cc(Cl)c(Cl)c(Cl)c2Cl)cc1 | 5.81 |
| Oc1ccc(-c2ccc(O)cc2Cl)cc1 | 3.37 |
| Oc1ccc(-c2ccc(Cl)cc2)cc1 | 4.04 |
| Oc1ccc(-c2ccccc2)cc1 | 3.33 |
| Oc1ccc(-c2cc(Cl)ccc2Cl)cc1 | 4.63 |
| Oc1ccc(-c2ccccc2)c(Cl)c1 | 4.04 |
| Oc1c(Cl)cc(-c2cc(Cl)c(O)c(Cl)c2)cc1Cl | 5.14 |
| Oc1ccc(-c2ccc(O)cc2)cc1 | 2.66 |
| Oc1ccc(-c2c(Cl)cccc2Cl)cc1 | 4.63 |
| Oc1c(Cl)cc(-c2ccc(Cl)cc2)cc1Cl | 5.22 |
| Oc1ccc(-c2c(Cl)cc(Cl)cc2Cl)cc1 | 5.22 |

Reference: the SangsterLogP compilation
